Measurements published in PMC12531613, “Synthesis and Biological Evaluation of Novel 2‐(Piperidin‐4‐yl)‐1,2,3,4‐tetrahydroisoquinoline and 2‐(Piperidin‐4‐yl)decahydroisoquinoline Antimycotics” (Archiv Der Pharmazie, 2025).
In brackets after ≈: the same amount, converted by molar mass. Like-named read-outs stand apart in the source and are kept apart here. One block for each molecule: values may come before it.

Columns and labels:
Format in all cases: cell-based
Yarrowia lipolytica = experiment: MIC100 microdilution assay against Yarrowia lipolytica
Protocol: In previous research we found a good correlation between MIC values against Yarrowia lipolytica and pathogenic Candida species.
Determination of MICs against Yarrowia lipolytica (DSMZ, Braunschweig, Germany) was carried out according to lit. Yarrowia lipolytica was cultivated in AC‐agar (Sigma Aldrich). Concentration of yeast cells was determined by photometer and adjusted to a turbidity of 0.5 according to McFarland standard at 600 nm. All substances were dissolved in DMSO or methanol.
Determination of MICs (minimal inhibitory concentration) against Yarrowia lipolytica was carried out according to Lit.^[13] Concentration of yeast cells was determined by photometer and adjusted to a turbitity of 0.5 according to McFarland Standard.

C. albicans = experiment: MIC90 microdilution (EUCAST), C. albicans; conditions: Candida albicans, 24 h
Protocol: (§1) Determination of MICs (minimal inhibitory concentration) against Candida species was carried out according to the European Committee of Antifungal Susceptibility Testing. Concentration of yeast cells was determined by photometer and adjusted to a turbidity of 0.5 according to McFarland standard. MIC90 was determined by microdilution plate reader (Sunrise Tecan) at 450 nm, after 24 h incubation at 37°C. MIC90 was defined as the minimal concentration of chemical causing 90% growth inhibition, respectively. Growth inhibition of molds was determined by eye and microscopically, following EUCAST guidelines. All substances were dissolved in DMSO and diluted in RPMI 1640 medium, containing 2% glucose. All assays were carried out twice.

C. glabrata = experiment: MIC90 microdilution (EUCAST), C. glabrata; conditions: Nakaseomyces glabratus, 24 h
Protocol: as §1

C. krusei = experiment: MIC90 microdilution (EUCAST), C. krusei; conditions: Pichia kudriavzevii, 24 h
Protocol: as §1

A. fumigatus (A65) = experiment: MIC90 growth inhibition of molds (EUCAST), A. fumigatus (A65); conditions: Aspergillus fumigatus, RPMI 1640, 2% glucose, read by eye and microscopically
Protocol: Determination of MICs (minimal inhibitory concentration) against Candida species was carried out according to the European Committee of Antifungal Susceptibility Testing. Concentration of yeast cells was determined by photometer and adjusted to a turbidity of 0.5 according to McFarland standard. […] Growth inhibition of molds was determined by eye and microscopically, following EUCAST guidelines. […] All assays were carried out twice.

A. fumigatus (R16) = experiment: MIC90 growth inhibition of molds (EUCAST), A. fumigatus (R16); conditions: Aspergillus fumigatus
Protocol: as §1

A. fumigatus (R7) = experiment: MIC90 growth inhibition of molds (EUCAST), A. fumigatus (R7); conditions: Aspergillus fumigatus
Protocol: as §1

R. microsporus = experiment: MIC90 growth inhibition of molds (EUCAST), R. microsporus; conditions: Rhizopus microsporus
Protocol: as §1

R. arrhizus (oryzae) = experiment: MIC90 growth inhibition of molds (EUCAST), R. arrhizus (oryzae); conditions: Rhizopus arrhizus
Protocol: as §1

[1] = MTT cytotoxicity assay against HL 60 cells; conditions: human, HL-60 cells (human leukemia cells); HL 60 cell line; MTT assay; read-out: IC50 cytotoxicity
Protocol: The cytotoxicity of the active compounds was checked in an MTT assay against human HL 60 cells. […] Although, this corresponds to the MIC range that would be needed in treatment, the values are within the range observed for commonly used antimycotics such as amorolfine and posaconazole. All active compounds were evaluated for their biopharmaceutical behavior and drug‐likeness using the online program SwissADME [26] and should show oral bioavailability according to the Lipinski rules of five.
HL‐60 cells (human leukemia cells, DSM No. ACC3) were obtained from DSMZ (German Collection of Microorganisms and Cell Cultures, Braunschweig, Germany) and cultivated in RPMI 1640 medium with 10% fetal bovine serum (FBS), both from PAA Laboratories, Cölbe, Germany) without the addition of antibiotics at 37°C in a humidified atmosphere containing 5% CO2. The assay was performed according to lit.

[2] = 48 h, read-out: Biological Activity MIC Yarrowia lipolytica
[3] = microdilution, 48 h, 25°C, 600 nm, read-out: MIC100

SMILES: CC(C)(C)OC(=O)N1CCC(N2CCC3CCCCC3C2)CC1 (centres unmarked) [3c, tert‐Butyl 4‐(octahydroisoquinolin‐2(1H)‐yl)piperidine‐1‐carboxylate]
MIC (Yarrowia lipolytica; [2]): > 100 µg/mL
MIC (Yarrowia lipolytica; 48 h, read-out: MIC100): > 100 µg/mL

SMILES: CCCC(=O)N1CCC(N2CCc3cc(OC)c(OC)cc3C2)CC1 [5d, 1‐[4‐(6,7‐Dimethoxy‐3,4‐dihydroisoquinolin‐2(1H)‐yl)‐piperidin‐1‐yl]butan‐1‐one]
MIC (Yarrowia lipolytica; [2]): > 100 µg/mL
MIC (Yarrowia lipolytica; 48 h, read-out: MIC100): > 100 µg/mL

SMILES: CC(C)(C)OC(=O)N1CCC(N2CCc3ccccc3C2)CC1 [3a, tert‐Butyl 4‐(3,4‐dihydroisoquinolin‐2(1H)‐yl)piperidine‐1‐carboxylate]
MIC (Yarrowia lipolytica; [2]): > 100 µg/mL
MIC (Yarrowia lipolytica; 48 h, read-out: MIC100): > 100 µg/mL

SMILES: OC(Cn1cncn1)(Cn1cncn1)c1ccc(F)cc1F [FLZ, fluconazole, reference compound]
MIC90 (C. albicans; C. albicans, RPMI 1640, 2% glucose, 37°C, duplicate, read-out: MIC90): 0.25 µg/mL (≈ 0.816 µM)
MIC90 (C. glabrata; C. glabrata, RPMI 1640, 2% glucose, 37°C, duplicate, read-out: MIC90): 16 µg/mL (≈ 52.2 µM)
MIC90 (C. krusei; C. krusei, RPMI 1640, 2% glucose, 37°C, duplicate, read-out: MIC90): 8 µg/mL (≈ 26.1 µM)
MIC90 (A. fumigatus (A65)): 32 µg/mL (≈ 104 µM)
MIC90 (A. fumigatus (R16); A. fumigatus (R16), RPMI 1640, 2% glucose, read by eye and microscopically, read-out: MIC90): > 32 µg/mL
MIC90 (A. fumigatus (R7); A. fumigatus (R7), RPMI 1640, 2% glucose, read by eye and microscopically, read-out: MIC90): 16 µg/mL (≈ 52.2 µM)
MIC90 (R. microsporus; R. microsporus, RPMI 1640, 2% glucose, read by eye and microscopically, read-out: MIC90): > 32 µg/mL
MIC90 (R. arrhizus (oryzae); R. arrhizus (oryzae), RPMI 1640, 2% glucose, read by eye and microscopically, read-out: MIC90): > 32 µg/mL

SMILES: C1CC[C@H]2CN(C3CCNCC3)CC[C@@H]2C1 (racemic) [4c, (±)‐2‐(Piperidin‐4‐yl)decahydroisoquinoline]
MIC (Yarrowia lipolytica; [3]): > 100 µg/mL
MIC (Yarrowia lipolytica; supplement table, MIC100, 48 h, 25°C, 600 nm, read-out: Biological Activity MIC Yarrowia lipolytica): > 100 µg/mL

SMILES: CCC(C)(C)c1ccc(CC(C)CN2C[C@@H](C)O[C@@H](C)C2)cc1 (some centres unmarked) [Amorolfine, reference compound]
IC50 [1]: 17 µg/mL (≈ 53.5 µM)

SMILES: CCCCCCCCN1CCC(N2CCc3ccccc3C2)CC1 [6b, 2‐(1‐Octylpiperidin‐4‐yl)‐1,2,3,4‐tetrahydroisoquinoline]
MIC (Yarrowia lipolytica; [2]): 100 µg/mL
MIC (Yarrowia lipolytica; 48 h, read-out: MIC100): 100 µg/mL

SMILES: COc1cc2c(cc1OC)CN(C1CCN(C(=O)OC(C)(C)C)CC1)CC2 [3b, tert‐Butyl 4‐(6,7‐dimethoxy‐3,4‐dihydroisoquinolin‐2(1H)‐yl)piperidine‐1‐carboxylate]
MIC (Yarrowia lipolytica; [2]): > 100 µg/mL
MIC (Yarrowia lipolytica; 48 h, read-out: MIC100): > 100 µg/mL

MIC (Yarrowia lipolytica; [3]): 0.4 µg/mL
MIC (Yarrowia lipolytica; microdilution, same value given in µM, read-out: MIC100 (molar value in brackets)): 1.2 µM
SMILES: Clc1ccccc1C(c1ccccc1)(c1ccccc1)n1ccnc1 [Clotrimazole, reference compound]

SMILES: CCCCCCCCN1CCC(N2CCc3cc(OC)c(OC)cc3C2)CC1 [6e, 6,7‐Dimethoxy‐2‐(1‐octylpiperidin‐4‐yl)‐1,2,3,4‐tetrahydroisoquinoline]
MIC (Yarrowia lipolytica; [2]): 1.6 µg/mL
MIC (Yarrowia lipolytica; 48 h, read-out: MIC100): 1.6 µg/mL
MIC (Yarrowia lipolytica; read-out: MIC100 (molar value in brackets)): 4.1 µM
MIC90 (C. albicans): 32 µg/mL (≈ 82.3 µM)
MIC90 (C. glabrata): > 32 µg/mL
MIC90 (C. krusei): 8 µg/mL (≈ 20.6 µM)
MIC90 (A. fumigatus (A65)): > 32 µg/mL
MIC90 (A. fumigatus (R16)): > 32 µg/mL
MIC90 (A. fumigatus (R7)): > 32 µg/mL
MIC90 (R. microsporus): > 32 µg/mL
MIC90 (R. arrhizus (oryzae)): > 32 µg/mL
IC50 [1]: > 100 µg/mL

SMILES: c1ccc(CN2CCC(N3CCc4ccccc4C3)CC2)cc1 [7a, 2‐(1‐Benzylpiperidin‐4‐yl)‐1,2,3,4‐tetrahydroisoquinoline]
MIC (Yarrowia lipolytica; [2]): > 100 µg/mL
MIC (Yarrowia lipolytica; 48 h, read-out: MIC100): > 100 µg/mL
MIC90 (C. albicans): > 32 µg/mL
MIC90 (C. glabrata): > 32 µg/mL
MIC90 (C. krusei): > 32 µg/mL
MIC90 (A. fumigatus (A65)): > 32 µg/mL
MIC90 (A. fumigatus (R16)): > 32 µg/mL
MIC90 (A. fumigatus (R7)): > 32 µg/mL
MIC90 (R. microsporus): > 32 µg/mL
MIC90 (R. arrhizus (oryzae)): > 32 µg/mL

SMILES: COc1cc2c(cc1OC)CN(C1CCNCC1)CC2 [4b, 6,7‐Dimethoxy‐2‐(piperidin‐4‐yl)‐1,2,3,4‐tetrahydroisoquinoline]
MIC (Yarrowia lipolytica; [2]): > 100 µg/mL
MIC (Yarrowia lipolytica; 48 h, read-out: MIC100): > 100 µg/mL
